The source of these data is ChEMBL document CHEMBL3259791, “Discovery of (E)-3-((styrylsulfonyl)methyl)pyridine and (E)-2-((styrylsulfonyl)methyl)pyridine derivatives as anticancer agents: synthesis, structure-activity relationships, and biological activities” (J Med Chem, 2014).

The source made the active and inactive calls. The rule behind the calls is not given here.

Series [1] can be described thus: Cmax in mouse at 40 mg/kg, po after 24 hrs. It is filed as ADME, organism-based. Further details: dose 40 mg/kg, route oral. The note with it: in vivo.
The nature of series [2]: Elimination half life in mouse at 40 mg/kg, po after 24 hrs. The class given is ADME, organism-based. Set-up: dose 40 mg/kg, route oral. The note with it: in vivo, read-out: beta t1/2 (converted).
Series [3] can be described thus: Oral bioavailability (0 to t) in mouse at 40 mg/kg after 24 hrs. It is filed as ADME, organism-based. The note with it: in vivo.
In series [4] the test system is A2780. Put plainly: Antitumor activity against human A2780 cells xenografted in mouse assessed as increase in life span at 50 mg/kg, po administered every second day for 2 weeks. The class given is functional.
Series [5] has as its system MCF7. Put plainly: Selectivity ratio of IC50 for human WI38 cells to IC50 for ER positive human MCF7 cells. The class given is functional.
Series [6] relates to DU-145. In words: Selectivity ratio of IC50 for human WI38 cells to IC50 for AR negative human DU145 cells. It is filed as functional.
Series [7] concerns LNCaP. Put plainly: Selectivity ratio of IC50 for human WI38 cells to IC50 for AR positive human LNCAP cells. The class given is functional.
Series [8] concerns HCT-116. Put plainly: Selectivity ratio of IC50 for human WI38 cells to IC50 for human HCT116 cells. The class given is functional.
For series [9], the system named is A2780. Put plainly: Selectivity ratio of IC50 for human WI38 cells to IC50 for human A2780 cells. It is filed as functional.
The test system of series [10] is PANC-1. Put plainly: Ratio of ON01910 IC50 to compound IC50 for human PANC1 cells. It is filed as functional.
For series [11], the system named is A2780. Put plainly: Ratio of ON01910 IC50 to compound IC50 for human A2780 cells. It is filed as functional.
Series [12] in a line: Cmax in mouse at 10 mg/kg, po after 24 hrs. The class given is ADME, organism-based. Set-up: dose 10 mg/kg, route oral. The note with it: in vivo.
The subject of series [13] is A2780. Put plainly: Reduction in CDC25C level in human A2780 cells at 1 uM after 24 hrs by Western blot analysis. The class given is functional, cell-based. A general note: A western blot detects proteins with antibodies after separation by electrophoresis.
The test system of series [14] is A2780. Put plainly: Reduction in Mcl1 level in human A2780 cells at 1 uM after 24 hrs by Western blot analysis. It is filed as functional, cell-based.

For orientation: Cmax means the maximum level reached in the sampled fluid or tissue. In general, bioavailability refers to the share of a dose that reaches the circulation, judged against a reference dose that is usually intravenous. Higher therefore signals much systemic uptake.

In series [1], `COc1cc(OC)c(/C=C/S(=O)(=O)Cc2ccc(OC)c(N)n2)c(OC)c1` had a Cmax of 2.5 µM. The half-life in [2] was 77.1 h. Also, the bioavailability in series [3] is 44%. The Activity in series [4] is 80%. For the same compound, the “Ratio IC50” value in series [5] was over 1400; in series [6], over 1400; in [7] it was over 1400; in series [8] it was over 1400; in [9] it was over 1400; in series [10], 10. In series [11], the “Ratio IC50” value worked out at 10.
The compound `COc1cc(OC)c(/C=C/S(=O)(=O)Cc2ccc(OC)c(NS(C)(=O)=O)n2)c(OC)c1` had a Cmax in series [12] of 2.1 µM. In addition, the inhibition entry in series [13] and in series [14] was “Active” in each case.
